Measurements: PubChem BioAssay (NCI)
Several values for one entry are separate records, joined by “and”; a condition that tells them apart may be missing. Equal entries are not always repeated.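 Step 1: Grow cells in 96-well plates. Step 2: Expose to compound for 48 hours at 5 concentrations. Step 3: Interpolate endpoints linearly; if unreached, use highest concentration. At the GI50, growth is halved. TGI is the concentration that stops growth completely.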

Experiments:
Experiment in all cases: NCI anticancer screen, dose series, 48 h
ACHN renal = system: ACHN renal
U251 CNS = system: U251 CNS
MDA-N = system: MDA-N
MOLT-4 leukemia = system: MOLT-4 leukemia
HT29 colon = system: HT29 colon
KM12 colon = system: KM12 colon
HCC-2998 colon = system: HCC-2998 colon
A498 renal = system: A498 renal
SK-MEL-28 melanoma = system: SK-MEL-28 melanoma
T-47D breast = system: T-47D breast

| SMILES | TGI (ACHN renal) | TGI (U251 CNS) | TGI (MDA-N) | TGI (MOLT-4 leukemia) | TGI (HT29 colon) | TGI (KM12 colon) | TGI (HCC-2998 colon) | TGI (A498 renal) | TGI (SK-MEL-28 melanoma) | TGI (T-47D breast) | GI50 (U251 CNS) | GI50 (MOLT-4 leukemia) | GI50 (HT29 colon) | GI50 (KM12 colon) | GI50 (HCC-2998 colon) | GI50 (A498 renal) | GI50 (SK-MEL-28 melanoma) |
| --- | --- | --- | --- | --- | --- | --- | --- | --- | --- | --- | --- | --- | --- | --- | --- | --- | --- |
| O=[N+]([O-])C(=C(N1CCCCC1)N1CCCCC1)/C(Cl)=C(\Cl)Br | 79.5 µM | 56.3 µM | > 100 µM | 57.3 µM | > 100 µM | 54.5 µM | 32.3 µM | 42.2 µM | 41.4 µM | 65.1 µM | – | – | – | – | – | – | – |
| CCOC(=O)c1[nH]cc(C)c1-c1ccn(-c2ccccc2)c1 | > 100 µM | > 100 µM | > 100 µM | 65.2 µM | > 100 µM | > 100 µM | > 100 µM | > 100 µM | > 100 µM | > 100 µM | – | – | – | – | – | – | – |
| O=C(O)[C@@H]1C[C@@H](O)CN1C(=O)OCc1ccccc1 | > 100 µM | > 100 µM | > 100 µM | > 100 µM | > 100 µM | > 100 µM | > 100 µM | > 100 µM | > 100 µM | > 100 µM | – | – | – | – | – | – | – |
| Cc1ccccc1OC(C)C(=O)NN1C(=O)CC(=O)N(c2ccc(Cl)cc2)C1=S (stereo not drawn) | > 100 µM | > 100 µM | > 100 µM | > 100 µM | > 100 µM | > 100 µM | 71.9 µM | 64.6 µM | > 100 µM | > 100 µM | – | – | – | – | – | – | – |
| O=C1c2ccccc2CN1c1ccc(O)cc1 | > 100 µM | > 100 µM | > 100 µM | > 100 µM | > 100 µM | > 100 µM | > 100 µM | > 100 µM | > 100 µM | > 100 µM | – | – | – | – | – | – | – |
| COC(=O)c1c(C)cccc1/C=C1/Cc2c(C)cccc2C1=O | > 100 µM | > 100 µM | > 100 µM | > 100 µM | > 100 µM | > 100 µM | > 100 µM | > 100 µM | > 100 µM | > 100 µM | – | – | – | – | – | – | – |
| CC(CC(C#N)(c1ccccc1)c1ccccc1)N1CCCCC1 (stereo not drawn) | > 100 µM | > 100 µM | 46.7 µM | 49.3 µM | 51 µM | 49.2 µM | 29.1 µM | 85.1 µM | 67 µM | > 100 µM | – | – | – | – | – | – | – |
| c1ccc2c(c1)[nH]c1nc3cc(-c4ccc5nc6c(nc5c4)[nH]c4ccccc46)ccc3nc12 | > 100 µM | > 100 µM | > 100 µM | > 100 µM | > 100 µM | > 100 µM | > 100 µM | > 100 µM | > 100 µM | > 100 µM | – | – | – | – | – | – | – |
| O=C1/C(=C/c2ccccc2S)N=C(c2ccccc2)N1c1nc2ccc(Sc3ccccc3)cc2[nH]1 | > 100 µM | 51.7 µM | 34.4 µM | > 100 µM | 43.1 µM | > 100 µM | 37.6 µM | > 100 µM | > 100 µM | > 100 µM | – | – | – | – | – | – | – |
| O=C1C(c2c(O)[nH]c3ccc(S(=O)(=O)O)cc23)=Nc2ccccc21 | > 100 µM | > 100 µM | > 100 µM | > 100 µM | > 100 µM | > 100 µM | > 100 µM | > 100 µM | > 100 µM | > 100 µM | – | – | – | – | – | – | – |
| C=C1C(O)C2(O)OCC34C(CC5C(C)=CC(=O)C(O)C5(C)C23)OC(=O)C(OC(=O)C/C=C(\C)CCCCC)C14 (stereo not drawn) | 0.00856 µM and 0.0518 µM | – | 0.00229 µM and 0.0179 µM | – | – | 0.0201 µM and 0.019 µM and 0.0342 µM | 0.00222 µM and 0.019 µM | 0.00941 µM and 0.057 µM and 0.0255 µM | – | < 0.001 µM | < 0.001 µM | < 0.001 µM | < 0.001 µM | < 0.001 µM | < 0.001 µM | 0.00249 µM and 0.0223 µM | < 0.001 µM |
